According to PMC9716094, “Synthesis of novel amidines via one-pot three component reactions: Selective topoisomerase I inhibitors with antiproliferative properties” (Frontiers in Chemistry, 2022):

What was measured:
[1] = target: T1, recombinant human DNA topo I (Homo sapiens, UniProt P11387); test: Topo I inhibitory assay (pBR322 relaxation); assay type: biochemical
T1 construct: purchased Topo GEN INC., USA
T1 sequence (P11387 1-765): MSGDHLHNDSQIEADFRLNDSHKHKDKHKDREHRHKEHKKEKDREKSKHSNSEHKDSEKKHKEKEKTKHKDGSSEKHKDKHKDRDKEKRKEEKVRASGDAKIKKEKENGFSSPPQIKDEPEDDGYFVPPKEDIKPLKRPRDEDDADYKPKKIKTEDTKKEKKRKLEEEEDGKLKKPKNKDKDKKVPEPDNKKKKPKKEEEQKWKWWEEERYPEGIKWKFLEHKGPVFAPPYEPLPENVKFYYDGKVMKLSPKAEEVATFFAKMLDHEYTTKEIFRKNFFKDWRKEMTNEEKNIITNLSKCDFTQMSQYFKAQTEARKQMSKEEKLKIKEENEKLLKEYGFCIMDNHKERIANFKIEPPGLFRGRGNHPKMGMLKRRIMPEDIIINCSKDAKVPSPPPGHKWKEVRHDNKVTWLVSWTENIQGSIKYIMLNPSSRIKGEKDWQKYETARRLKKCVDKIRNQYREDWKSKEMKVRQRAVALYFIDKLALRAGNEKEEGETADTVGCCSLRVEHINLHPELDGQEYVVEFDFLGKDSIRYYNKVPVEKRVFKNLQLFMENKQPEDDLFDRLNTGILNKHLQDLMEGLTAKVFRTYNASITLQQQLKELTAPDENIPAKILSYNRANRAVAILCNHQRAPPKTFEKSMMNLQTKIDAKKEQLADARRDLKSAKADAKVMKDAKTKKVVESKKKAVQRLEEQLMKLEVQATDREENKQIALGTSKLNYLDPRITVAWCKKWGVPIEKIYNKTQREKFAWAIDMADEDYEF
Description: (§1) All the tested compounds were dissolved in DMSO and the DNA topoisomerase I and II inhibitory activity of each compound was measured as follows according to previously reported methods. Mixture comprising of 100 ng supercoiled pBR322 plasmid DNA (Thermo Scientific, USA) and 0.2 ~ 1 unit of recombinant human DNA topo I (Topo GEN INC., USA) or topo IIα (USB Corp., USA) was incubated with or without the prepared compounds in the assay buffer (For topo I, 10 mM Tris-HCl (pH 7.9), 150 mM NaCl and 0.1% BSA, 0.1 mM spermidine and 5% glycerol; for topo II, 10 mM Tris-HCl (pH 7.9), 50 mM NaCl, 50 mM KCl, 5 mM MgCl2, 1 mM EDTA, 1 mM ATP and […] BSA) for 30 min at 37 ◦C. The reaction with final volume of 10 μL was stopped by adding the topo stop buffer (For topo I, 10% SDS solution containing 0.2% bromophenol blue, 0.2% xylene cyanol and 30% glycerol; for topo II, 7 mM EDTA). The reaction products were electrophoresed on 0.8% agarose gel at 50 V for 1 h with TAE electrophoresis buffer. The gels were stained in an EtBr solution (0.5 mg/mL) and visualized by transillumination with UV light and were quantitated using Alpha Tech ImagerTM (Alpha Innotech Corp., USA).

topo IIα = target: T2, topo IIα (Homo sapiens, UniProt P11388); test: Topo IIα inhibitory assay (pBR322 relaxation); assay type: biochemical
T2 construct: purchased USB Corp., USA
Description: as §1

[2] = test system: Panc-1 (pancreas cancer cell line); test: Antiproliferative assay, Panc-1; assay type: cell-based; settings: Homo sapiens, read-out: Antiproliferative activity IC50 ± SEM, Panc-1
From the text: (§2) See Supplementary Appendix S1A.
(§3) DMSO (0.1%) was used as control.

[3] = test system: MCF-7 (breast cancer cell line); test: Antiproliferative assay, MCF-7; assay type: cell-based; settings: Homo sapiens, MCF7; read-out: Antiproliferative activity IC50 ± SEM, MCF-7
From the text: as §2, §3

[4] = test system: HT-29 (colon cancer cell line); test: Antiproliferative assay, HT-29; settings: Homo sapiens, HT-29, read-out: Antiproliferative activity IC50 ± SEM, HT-29
Description: (§4) The IC50 of each compound was calculated using doxorubicin as the reference.
(§5) To explore the antiproliferative potential of compounds MTT assay was performed according to previously reported procedure using different cell lines to explore the antiproliferative potential of compounds propidium iodide fluorescence assay was performed using different cell lines. To calculate the total nuclear DNA, a fluorescent dye (propidium iodide, PI) is used which can attach to the DNA, thus offering a quick and precise technique. PI cannot pass through the cell membrane and its signal intensity can be considered as directly proportional to quantity of cellular DNA. Cells whose cell membranes are damaged or have changed permeability are counted as dead ones. The assay was performed by seeding the cells of different cell lines at a density of 3000-7500 cells/well (in 200µl medium) in culture plates followed by incubation for 24h at 37 °C in humidified 5% CO2/95% air atmospheric conditions. The medium was removed; the compounds were added to the plates at 10 µM concentrations (in 0.1% DMSO) in triplicates, followed by incubation for 48 h. DMSO (0.1%) was used as control. After incubation, medium was removed followed by the addition of PI (25 µl, 50µg/mL in water/medium) to each well of the plates. At -80 °C, the plates were allowed to freeze for 24 h, followed by thawing at 25 °C. A fluorometer (Polar-Star BMG Tech) was used to record the readings at excitation and emission wavelengths of 530 and 620 nm for each well. The percentage cytotoxicity of compounds was calculated using the following formula:

[5] = test system: four cancer cell lines (A-549, MCF-7, Panc-1, HT-29); test: Antiproliferative assay, average over the four cancer cell lines (GI50); settings: read-out: Antiproliferative activity IC50, Average (mean GI50)
Description: as §4, §5

[6] = test system: A-549 (epithelial cancer cell line); test: Antiproliferative assay, A-549; assay type: cell-based; settings: Homo sapiens, A549; read-out: Antiproliferative activity IC50 ± SEM, A-549
From the text: as §2, §3

[7] = Cell viability assay (MTT) on normal cell line; assay type: cell-based; settings: human, MCF-10A mammary epithelial cells, 50 µM of compound;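 further: values are percent cell viability not percent inhibition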
Description: To study the effect of 4a-l and 5a-c on normal cell lines, a cell viability assay was done using the MCF-10A (human mammary gland epithelial) cell line ([Abdelbaset et al., 2019]; [Al-Wahaibi et al., 2020]). This study uses a concentration of 50 µM of the investigated compound for 4 days, after which cell viability is evaluated.
To study the effect of 4a-l and 5a-c on normal cell lines, a cell viability assay was done using the MCF-10A (human mammary gland epithelial) cell line ([Abdelbaset et al., 2019]; [Al-Wahaibi et al., 2020]). See Supplementary Appendix S1A.
MTT assay was carried out to study the effect of compounds on mammary epithelial cells (MCF-10A). The medium in which cells were propagated contained Dulbecco's modified Eagle's medium (DMEM)/ Ham's F-12 medium (1:1) supplemented with epidermal growth factor (20 ng/mL), hydrocortisone (500 ng/mL), insulin (10 μg/mL), 2 mM glutamine and 10% fetal calf serum. After every 2-3 days, the cells were passaged using trypsin ethylenediamine tetra acetic acid (EDTA). The cells were seeded at a density of 10^4 cells mL^-1 in flat-bottomed culture plates containing 96 wells each. After 24 h, medium was removed from the plates and the compounds in (in 0.1% DMSO) were added (in 200 μL medium to yield a final concentration of 0.1% v/v) to the wells of plates. A single compound was designated with four wells followed by incubation of plates for 96h at 37°C. After incubation, medium was removed completely from the plates followed by addition of MTT (0.4 mg/mL in medium) to each well and subsequent incubation of plates for 3h. MTT (along with the medium) was removed and DMSO (150μL) was added to each well of the culture plates, followed by vortexing and subsequent measurement of absorbance (at 540 nm) using microplate reader. The data are shown as percentage inhibition of proliferation in comparison with controls containing 0.1% DMSO.

T2 sequence (P11388 whole entry): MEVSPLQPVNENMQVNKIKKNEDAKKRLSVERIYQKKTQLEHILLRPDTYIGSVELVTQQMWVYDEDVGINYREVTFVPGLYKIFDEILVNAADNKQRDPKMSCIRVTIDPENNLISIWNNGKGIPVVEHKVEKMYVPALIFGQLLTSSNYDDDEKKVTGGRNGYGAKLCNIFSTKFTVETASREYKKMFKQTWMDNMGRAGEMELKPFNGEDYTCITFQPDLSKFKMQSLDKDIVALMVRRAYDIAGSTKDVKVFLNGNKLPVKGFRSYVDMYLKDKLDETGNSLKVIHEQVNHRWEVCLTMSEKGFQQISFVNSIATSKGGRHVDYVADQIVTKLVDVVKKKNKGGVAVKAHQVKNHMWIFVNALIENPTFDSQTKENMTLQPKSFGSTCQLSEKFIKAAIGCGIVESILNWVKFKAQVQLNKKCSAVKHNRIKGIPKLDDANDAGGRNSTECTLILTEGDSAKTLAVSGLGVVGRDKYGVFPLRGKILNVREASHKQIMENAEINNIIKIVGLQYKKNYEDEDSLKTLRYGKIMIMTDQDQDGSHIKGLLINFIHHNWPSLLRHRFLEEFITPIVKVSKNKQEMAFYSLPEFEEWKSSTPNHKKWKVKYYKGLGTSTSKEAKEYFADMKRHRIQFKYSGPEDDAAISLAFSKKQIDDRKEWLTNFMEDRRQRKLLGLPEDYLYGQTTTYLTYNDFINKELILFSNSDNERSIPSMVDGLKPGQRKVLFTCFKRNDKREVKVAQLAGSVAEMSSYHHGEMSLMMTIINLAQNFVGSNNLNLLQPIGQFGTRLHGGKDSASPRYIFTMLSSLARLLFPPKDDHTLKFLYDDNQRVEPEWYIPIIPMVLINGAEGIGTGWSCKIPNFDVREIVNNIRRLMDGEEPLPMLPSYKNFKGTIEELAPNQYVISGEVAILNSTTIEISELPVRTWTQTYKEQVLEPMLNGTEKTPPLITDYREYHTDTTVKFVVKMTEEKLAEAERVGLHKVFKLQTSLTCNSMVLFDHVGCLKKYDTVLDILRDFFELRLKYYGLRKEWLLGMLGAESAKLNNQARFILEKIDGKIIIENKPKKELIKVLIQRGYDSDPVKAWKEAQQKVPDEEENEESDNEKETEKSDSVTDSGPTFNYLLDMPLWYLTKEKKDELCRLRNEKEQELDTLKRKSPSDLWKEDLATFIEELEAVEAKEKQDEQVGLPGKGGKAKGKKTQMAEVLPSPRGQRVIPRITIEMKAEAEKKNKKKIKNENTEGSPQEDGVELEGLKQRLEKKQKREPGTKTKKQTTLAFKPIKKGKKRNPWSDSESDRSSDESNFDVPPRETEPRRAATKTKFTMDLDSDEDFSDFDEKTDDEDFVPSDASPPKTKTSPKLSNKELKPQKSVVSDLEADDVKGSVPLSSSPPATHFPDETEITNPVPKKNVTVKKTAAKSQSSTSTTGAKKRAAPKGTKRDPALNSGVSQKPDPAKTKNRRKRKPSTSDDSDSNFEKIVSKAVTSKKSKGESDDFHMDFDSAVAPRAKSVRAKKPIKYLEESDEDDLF

| Compound | inhibition at 20 µM [1] [%] | inhibition at 100 µM [1] [%] | inhibition at 20 µM (topo IIα) [%] | inhibition at 100 µM (topo IIα) [%] | IC50 [2] [nM] | IC50 [3] [nM] | IC50 [4] [nM] | IC50 [5] [nM] | IC50 [6] [nM] | melting point [°C] | viability at 4 days, 50 µM [7] [%] |
| --- | --- | --- | --- | --- | --- | --- | --- | --- | --- | --- | --- |
| CC[C@@]1(O)C(=O)OCc2c1cc1n(c2=O)Cc2cc3ccccc3nc2-1 [Camptothecin, reference compound] | 40 | 82.6 | – | – | – | – | – | – | – | – | – |
| Cc1ccc2[nH]c(=O)cc(/N=C(\C3CCCC3)N3CCCCC3)c2c1 [Compound 4b, (E) 4-((Cyclopentyl(piperidin-1-yl)methylene)amino)-6-methylquinolin-2(1H)-one] | 29.6 | 65.9 | 22.3 | 57.2 | 1500 ± 100 | 1400 ± 100 | 1600 ± 100 | 1500 | 1500 ± 100 | 222 | 92 |
| O=c1cc(/N=C(\C2CCCC2)N2CCCCC2)c2cc(Cl)ccc2[nH]1 [Compound 4d, (E) 4-((Cyclopentyl(piperidin-1-yl)methylene)amino)-6-chloroquinolin-2(1H)-one] | 34.7 | 71.6 | 21.7 | 54.2 | 1300 ± 100 | 1200 ± 100 | 1400 ± 100 | 1350 | 1500 ± 100 | 248 | 92 |
| Cc1cccc2c(/N=C(\C3CCCC3)N3CCCCC3)cc(=O)[nH]c12 [Compound 4e, (E) 4-((Cyclopentyl(piperidin-1-yl)methylene)amino)-8-methylquinolin-2(1H)-one] | 39.1 | 81.4 | 25.6 | 60.4 | 1200 ± 100 | 1100 ± 100 | 1200 ± 100 | 1200 | 1300 ± 100 | 184 | 90 |
| COc1ccc2[nH]c(=O)cc(/N=C(\C3CCCC3)N3CCOCC3)c2c1 [Compound 4i, (E) 4-((Cyclopentyl(morpholino)methylene)amino)-6-methoxyquinolin-2(1H)-one] | 37.2 | 74.9 | 23.1 | 56.7 | 1600 ± 200 | 1400 ± 200 | 1200 ± 200 | 1300 | 1100 ± 200 | 247 | 89 |
| Cc1ccc2[nH]c(=O)cc(/N=C(\C3CCCC3)N3CCN(/C(=N/c4cc(=O)[nH]c5ccc(C)cc45)C4CCCC4)CC3)c2c1 [Compound 5b, 4,4'-((1E,1′E)-(piperazine-1,4-diylbis(cyclopentylmethanylylidene))bis(azanylylid-ene))bis(6-methylquinolin-2(1H)-one)] | – | – | – | – | 3900 ± 300 | 3700 ± 300 | 3800 ± 300 | 3900 | 4100 ± 300 | 355 | 91 |
| Cn1c(=O)cc(/N=C(\C2CCCC2)N2CCN(/C(=N/c3cc(=O)n(C)c4ccccc34)C3CCCC3)CC2)c2ccccc21 [Compound 5c, 4,4'-((1E,1′E)-(piperazine-1,4-diylbis(cyclopentylmethanylylidene))bis(azanylylid-ene))bis(1-methylquinolin-2(1H)-one)] | 46.7 | 84.8 | – | 23.8 | 900 ± 100 | 800 ± 100 | 1100 ± 100 | 1000 | 1100 ± 100 | 342 | 89 |
| COc1cc([C@@H]2c3cc4c(cc3[C@@H](O[C@@H]3O[C@@H]5CO[C@@H](C)O[C@H]5[C@H](O)[C@H]3O)[C@H]3COC(=O)[C@H]23)OCO4)cc(OC)c1O [Etoposide, reference compound] | – | – | 66 | 83.7 | – | – | – | – | – | – | – |
